{
  "source": "patent US5482867A",
  "about": "“Spatially-addressable immobilization of anti-ligands on surfaces” (Affymax Technologies N.V., priority 1993, dated 1996)",
  "key": {"Avidin [1]": {"target": "T1, Avidin (Streptomyces avidinii, UniProt P22629)", "T1 sequence (P22629 25-183)": "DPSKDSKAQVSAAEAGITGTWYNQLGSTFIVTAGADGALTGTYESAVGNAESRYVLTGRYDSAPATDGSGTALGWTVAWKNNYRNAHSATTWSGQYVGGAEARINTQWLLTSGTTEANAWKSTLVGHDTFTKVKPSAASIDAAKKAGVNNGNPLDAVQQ", "details": "SBS: Avidin; cited from earlier work"}, "[2]": {"test": "Chromatographic (reverse-phase HPLC) evidence for photoremoval of the NVOC group in solution", "format": "physicochemical", "details": "100 mM, two minutes, 1 watt/cm^2, 500 W Hg(Xe) arc lamp, 305 nm long pass filter; NVOC-biotin-ONP in acetonitrile, biotin in water", "excerpt": "The cuvette was irradiated for two minutes at a power of 1 watt/cm^2 with a 500 W Hg(Xe) arc lamp (Oriel #66142) having a 305 nm long pass filter (Oriel #51450). Illuminated and non-illuminated samples were then subjected to reverse-phase HPLC."}, "streptavidin [3]": {"target": "T2, streptavidin (Streptomyces avidinii, UniProt P22629)", "T2 construct": "purchased Amersham", "T2 sequence (P22629 25-183)": "as above", "test": "Scanning fluorescence imaging of Fluorescein-Biotin binding to streptavidin immobilized on a slide", "details": "1 μM Fluorescein-Biotin, 20 minutes", "method": "The microscope slide of Example I having NVOC-biotin covalently attached via a caproic-propyl spacer was illuminated and processed as in Example J, except that after preincubation with the PBS/BSA/Tween 20 solution, the surface was treated with 10 μg/ml solution of Streptavidin (in PBS/BSA/Tween 20) for 40 minutes at room temperature, followed by incubation with a 1 μM solution of Fluorescein-Biotin (5-(N-((5-(N-(6-(biotinoyl)amino) hexanoyl)amino)pentyl)thioureidyl)fluorescein, in PBS, pH 7.4) for 20 minutes. The resulting slide was then washed, dried, and examined using a scanning fluorescence microscope as described above."}, "streptavidin [4]": {"target": "T2, streptavidin", "test": "Scanning fluorescence imaging of Fluorescein-Streptavidin binding to caged-biotin glass slides after photodeprotection", "details": "NPOC, caproic-propyl spacer", "method": "Commercially available glass microscope slides were derivatized with N-BOC-aminopropyltriethoxy silane according to literature procedures (for example, see J. Chromatography, 1974, Vol. 97, p. 33). The slides were incubated in a solution of 20% trifluoroacetic acid in methylene chloride for 30 minutes to remove the BOC protecting group. After washing sequentially with methylene chloride, dimethylformamide, and ethanol, the slides were neutralized by immersing in a solution of 10% diisopropylethyl amine in methylene chloride for 30 minutes and further washed with methylene chloride.\nN-BOC-6-aminocaproic acid was converted to the BOP-activated ester in preparation for reaction with the derivatized glass slide. […]\n[…], as described in the Example I, was mounted on a custom flow cell and illuminated through a 500 μm×500 μm checkerboard-pattern mask (Photo Sciences Inc., Torrance, Calif.) using broad-band UV/blue light. The light source was a 500 W Mercury arc lamp (Oriel Model 87330) equipped with a 350 nm-450 nm dichroic reflector and produced actinic light having an intensity of 12 mW/cm^2 as measured through a 360 nm bandpass filter. […]"}, "Avidin [5]": {"target": "T1, Avidin", "test": "Blocking of subsequent 3H-biotin binding in streptavidin-treated microtiter wells", "method": "All procedures using NVOC-biotin-OMe were conducted in dim red light. NVOC-biotin-OMe was dissolved in dimethylformamide (DMF) to a concentration 1 mM and diluted to 100 μM with phosphate-buffered saline pH 7.4. In order to remove any contaminants having high affinity for avidin, 2 ml of the NVOC-biotin-OMe solution was mixed with 1 ml of packed streptavidin-Sepharose-4B resin (SIGMA) which had been washed thoroughly to remove any non-covalently bound avidin. After stirring for three hours, the resin was removed by centrifugation followed by filtration (0.2 micron nylon filter).\nMicrotiter wells (Beckman EIA plates) were treated for 1 hr with 200 μl of 0.5 μg/ml of streptavidin in 10 mM sodium bicarbonate buffer (pH 9.6). […] The wells were then washed with PBS/Tween 20 and incubated for 1 hr at room temperature with 200 μl of PBS containing ^3 H-biotin (30 Ci/mmol, New England Nuclear). The wells were then washed with PBS/Tween and treated for 30 minutes at room temperature with 200 μl of 10% trichloroacetic acid in water. The radioactivity in 100 μl was then determined by liquid scintillation counting."}, "avidin or streptavidin": {"tested_on": "avidin or streptavidin", "details": "cited from earlier work"}},
  "note": "Entries after “also recorded” stand apart in the source; their conditions may differ.",
  "data": [
    {"smiles": "COC(=O)CCCCC1SCC2C1NC(=O)N2C(=O)OC", "note": "(stereo not drawn) [1'-N-methoxy-carbonylbiotin methyl ester]", "values": [
      {"measurement": "Affinity (Ka)", "setting": "Avidin [1]", "result": "10^7 M^-1"}
    ]},
    {"smiles": "COC(=O)CCCCC1SCC2NC(=O)N(C(=O)OC)C21", "note": "(stereo not drawn) [3'-N-methoxy-carbonylbiotin methyl ester]", "values": [
      {"measurement": "Affinity (Ka)", "setting": "Avidin [1]", "result": "10^9 M^-1"}
    ]},
    {"smiles": "O=C(O)CCCC[C@@H]1SC[C@@H]2NC(=O)N[C@@H]21", "note": "[Biotin, reference compound]", "values": [
      {"measurement": "result of illumination (HPLC)", "setting": "[2]", "result": "unaffected by the illumination"}
    ]},
    {"smiles": "O=C(CCCCCNC(=O)CCCC[C@@H]1SC[C@@H]2NC(=O)N[C@@H]21)NCCCCCNC(=S)Nc1ccc2c(c1)C(=O)OC21c2ccc(O)cc2Oc2cc(O)ccc21", "note": "[Fluorescein-Biotin, 5-(N-((5-(N-(6-(biotinoyl)amino)hexanoyl)amino)pentyl)thioureidyl)fluorescein]", "values": [
      {"measurement": "binding of Fluorescein-Biotin to immobilized streptavidin (fluorescence image)", "setting": "streptavidin [3]", "result": "high fluorescence intensity"}
    ]},
    {"smiles": "N=C1NC2CSC(CCCCC(=O)O)C2N1", "note": "(stereo not drawn) [Iminobiotin]", "values": [
      {"measurement": "Affinity (Ka)", "setting": "Avidin [1]", "result": "10^11 M^-1"}
    ]},
    {"smiles": "O=C(CCCC[C@@H]1SC[C@H]2[C@@H]1NC(=O)N2C(=O)OCc1cc2c(cc1[N+](=O)[O-])OCO2)Oc1ccc([N+](=O)[O-])cc1", "note": "[NPOC-biotin-ONP, N-1'-(6-nitropiperonyloxycarbonyl)-biotin para-nitrophenyl ester]", "values": [
      {"measurement": "streptavidin binding upon photodeprotection (fluorescence image)", "setting": "streptavidin [4]", "result": "spatially-localized streptavidin binding"}
    ]},
    {"smiles": "COC(=O)CCCC[C@@H]1SC[C@H]2[C@@H]1NC(=O)N2C(=O)OCc1cc(OC)c(OC)cc1[N+](=O)[O-]", "note": "[NVOC-biotin-OMe, N-1'-(6-nitroveratryloxycarbonyl)-biotin methyl ester]", "values": [
      {"measurement": "affinity for avidin", "setting": "Avidin [5]; after illumination in solution", "result": "high affinity"},
      {"measurement": "effectiveness in blocking the subsequent binding of 3H-biotin", "setting": "Avidin [5]; illuminated (IL caged biotin), compared with biotin", "result": "nearly as effective as biotin"},
      {"measurement": "effect on the subsequent binding of 3H-biotin", "setting": "Avidin [5]; non-illuminated, concentrations as high as 10^-5 M", "result": "no significant effect"},
      {"measurement": "affinity for avidin", "setting": "Avidin [5]; prior to illumination", "result": "low affinity; also recorded: very low affinity"}
    ]},
    {"smiles": "COc1cc(COC(=O)N2C(=O)N[C@@H]3[C@H](CCCCC(=O)Oc4ccc([N+](=O)[O-])cc4)SC[C@@H]32)c([N+](=O)[O-])cc1OC", "note": "[NVOC-biotin-ONP, N-1'-(6-nitroveratryloxycarbonyl)-biotin para-nitrophenyl ester]", "values": [
      {"measurement": "result of illumination (HPLC)", "setting": "[2]", "result": "converted to biotin-ONP upon illumination; also recorded: converted to Biotin-ONP by the illumination"}
    ]},
    {"smiles": "CN(CCCNC(=O)CCCC[C@@H]1SC[C@@H]2NC(=O)N[C@@H]21)CCCNc1ccc(N=[N+]=[N-])cc1[N+](=O)[O-]", "note": "[photobiotin]", "values": [
      {"measurement": "effect of carboxylate-terminus derivatization on binding to avidin or streptavidin", "setting": "avidin or streptavidin", "result": "does not significantly reduce binding to avidin or streptavidin"}
    ]}
  ]
}
